Test results from patent US20200271640A1, “METHOD FOR SCREENING COMPOUNDS THAT MODULATE THE ACTIVITY OF THE ELECTRON TRANSPORT CHAIN” (IMG Pharma Biotech, S.L., priority 2017, published 2020).
Entries after “also recorded” stand apart in the source; their conditions may differ.

What was measured:
[1] = system: mitochondrial supercomplexes; experiment: DAB oxidation activity assay of complexes and supercomplexes of the mitochondrial ETC in rat heart MMP; conditions: for effect on NADH evoked inhibition (inhibition period) of DAB oxidation, supercomplex activity: in presence of NADH; for inhibition of DAB oxidation by the substrate itself: substrate alone; for effect on succinate evoked decrease in DAB oxidation: in presence of succinate; for effect on NADPH consumption rate / NADPH-inhibition period of DAB oxidation: in presence of NADPH
Protocol: The crude homogenate was subjected to a 1000×g for 8 min, and the resultant supernatant was centrifuged again at 18,000×g for 15 min (4° C., Microfuge® 22R centrifuge, Beckman Coulter). The pellet was washed in 20 volumes of homogenized buffer using an Ultra-Turrax® (T10 basic, IKA) and re-centrifuged under the same conditions. The homogenate aliquots were stored at −80 ° C. until they were used. Protein concentration was measured by the Bradford method and adjusted to the required concentrations.
(§5) The assay buffer consisted of a phosphate buffer (pH 7,4), EDTA, Cl2Mg, BSA and 3,3′-diaminobenzidine (DAB) in the absence or in the presence of CI and CII substrates and the tested drugs. The reaction was started by adding 0.1 mg/ml membranes homogenates to the assay buffer (25° C.) or putting into contact cell membrane microarrays with assay buffer. DAB oxidation was measured every 5-10 min spectrophotometrically at 460 and 595 nm in a Multiskan microtiter plate reader (Thermo Scientific) for 960 min in the case of homogenates
Results were expressed as means of independent data points±S.E.M. In sake of clarity, biochemical data (Complex I and II activities, superoxide production and supercomplex activity) are presented as percentage of controls with or without the application of ETC inhibitors. Data were analyzed using paired Student's t-test, one-way (followed by Tukey's post hoc test) or two-way ANOVA (followed by Bonferroni's post hoc test), as appropriate.

superoxide production = experiment: Superoxide production, NBT reduction in membrane homogenates; format: biochemical, rat; conditions: NADH (0.7 mM)
Protocol: The assay medium for measurement of superoxide production consisted of a 50 mM phosphate buffer (Na2HPO4, NaH2PO4, pH 7,4), 0.5 mg/ml nitro blue tetrazolium (NBT) as a redox dye and CI or CII substrates. The reaction was started by the addition of 0.1 mg/ml membranes homogenates for 360 min (25° C.) with or without decylubiquinone and ETC inhibitors.

[2] = system: NADH-ubiquinone oxidoreductase (complex I); experiment: NADH-ubiquinone oxidoreductase (complex I) activity assay, DCIP reduction; format: biochemical, rat; conditions: NADH (0.7 mM)
Protocol: (§1) CI and CII assays were performed based on a previous protocol with some modifications. The reaction mixture consisted of potassium phosphate buffer (0.8M K2HPO4, 0.2M KH2PO4, pH 7.4), 3 mg/ml BSA, 160 μM 2,6-dichloroindophenol (DCIP) (Sigma) together with the CI or CII substrates. The reaction was started by the addition of 0.1 mg/ml membranes homogenates (25° C.) in the absence or in the presence of decylubiquinone and ETC inhibitors. […] Control experiments were performed to exclude any interference or substrate interaction.

[3] = system: succinate dehydrogenase (complex II); experiment: succinate dehydrogenase (complex II) activity assay, DCIP reduction; format: biochemical, rat; conditions: succinate (1 mM)
Protocol: as §1

[4] = system: mitochondrial supercomplexes; experiment: DAB oxidation supercomplex assay in MMP isolated from heart of cynomolgus monkey; format: biochemical; conditions: MMP from hearts of cynomolgus monkey
Protocol: as §5

[5] = system: reactive oxygen species (ROS) such as superoxide; conditions: human tissue cell membrane microarrays
Protocol: (§2) Membrane homogenates isolated from human liver were suspended in buffer and they were printed (4 nL per spot, 2-5 replicates per sample) at increasing concentrations together with internal patrons onto glass slides using a non-contact microarrayer (Nano_plotter NP 2.1). The same process was used for developing cell membrane microarrays of different human tissues or rat tissues. Microarrays were stored at −20° C. until they were used. ETC activity assay using DAB and NBT as redox dyes
(§3) The assay buffer consisted of a 10 mM phosphate buffer (pH 7.4), 0.05% 3,3′-diaminobenzidine (DAB) or NBT (Nitro blue tetrazolium), 0.2 mM EGTA, 3 mg/ml BSA with or without mitochondrial ETC substrates and electron carriers, such as NADH and succinate. The reaction was started by adding 100 μl of the assay buffer to cell membrane microarrays using an incubation chamber. DAB oxidation or NBT reduction were measured every 20 min using a colorimetric high resolution scanner (Epson Perfection V750 Pro) for 24 hours.
(§4) Microphotographs were captured with the same light parameters and the collection of images was quantified with the MAPIX software (version 7.3.1). The optical densities obtained at different times were analyzed and the slope determined in the linear range was used to calculate the enzymatic rate.

electron transport chain = conditions: human tissue cell membrane microarrays
Protocol: as §2, §3, §4

Compound: C=C(C)[C@H]1Cc2c(ccc3c2O[C@@H]2COc4cc(OC)c(OC)cc4[C@@H]2C3=O)O1 [rotenone]
- effect on NADH evoked inhibition (inhibition period) of DAB oxidation, supercomplex activity ([1]; rat heart MMP): enhances the substrate evoked inhibition of DAB oxidation
- superoxide production using NADH (superoxide production): induces superoxide formation

Compound: NC(=O)C1=CN([C@@H]2O[C@H](COP(=O)(O)OP(=O)(O)OC[C@H]3O[C@@H](n4cnc5c(N)ncnc54)[C@H](OP(=O)(O)O)[C@@H]3O)[C@@H](O)[C@H]2O)C=CC1 [NADPH]
- inhibition of DAB oxidation by the substrate itself ([1]; rat heart MMP): inhibits DAB oxidation

Compound: CO/C(=C/C(N)=O)[C@H](C)[C@H](/C=C/c1csc(-c2csc([C@@H](C)/C=C/C=C/C(C)C)n2)n1)OC [myxothiazol]
- effect on succinate evoked decrease in DAB oxidation ([1]; rat heart MMP): promotes the blockage of the succinate-derived electron input
- DCIP reduction in the presence of NADH [2]: efficiently blocked DCIP reduction
- DCIP reduction with succinate as substrate [3]: not myxothiazol did it

Compound: C[C@@H]1CC[C@@]2(OC1)O[C@H]1[C@@H](O)[C@H]3[C@@H]4CC[C@H]5C[C@@H](O[C@@H]6O[C@H](CO)[C@H](O[C@@H]7O[C@H](CO)[C@@H](O)[C@H](O[C@@H]8OC[C@@H](O)[C@H](O)[C@H]8O)[C@H]7O[C@@H]7O[C@H](CO)[C@H](O)[C@H](O[C@@H]8O[C@H](CO)[C@@H](O)[C@H](O)[C@H]8O)[C@H]7O)[C@H](O)[C@H]6O)[C@H](O)C[C@]5(C)[C@H]4CC[C@]3(C)[C@H]1[C@@H]2C [digitonin]
- effect on NADH evoked inhibition (inhibition period) of DAB oxidation, supercomplex activity ([1]; rat heart MMP): enhancement on the NADH inhibition period

Compound: CCCCCCCCCCC1=C(C)C(=O)C(OC)=C(OC)C1=O [dUQ, decylubiquinone]
- effect on inhibitor mediated enhancement of NADH inhibition of DAB oxidation ([1]; dUQ at 10 μM, with NADH and rotenone, antimycin A or myxothiazol): reducing the inhibitor mediated effects; also recorded: partial blockage of the rotenone effect
- effect on inhibitor mediated enhancement of NADH inhibition of DAB oxidation ([1]; dUQ at 50 μM, with NADH and rotenone or antimycin A): potentiating those evoked by rotenone and antimycin A
- effect on DAB oxidation blockage at higher concentrations of succinate ([1]; rat heart MMP, higher concentrations of succinate (5 mM in FIG. 1e)): potentiates the DAB oxidation blockage
- effect on NADH evoked inhibition (inhibition period) of DAB oxidation, supercomplex activity ([1]; rat heart MMP): slight reduction of the NADH evoked inhibition of DAB oxidation
- effect on NADPH consumption rate / NADPH-inhibition period of DAB oxidation ([1]; rat heart MMP): NADPH-inhibition period is enhanced
- effect on NADH-dependent inhibition period of DAB oxidation ([4]; NADH (0.7 mM)): significantly reduces the NADH-dependent inhibition period of DAB oxidation
- partial blockage of the rotenone effect by dUQ ([4]; NADH with rotenone): not detected in monkey
- superoxide production using NADH (superoxide production): increased in the presence of dUQ
- effect of dUQ on the inhibitor's block of DCIP reduction, NADH ([2]; myxothiazol, dUQ (50 μM)): does not produce the same effect with myxothiazol
- effect of dUQ on the inhibitor's block of DCIP reduction, succinate ([3]; antimycin A, dUQ (50 μM)): blocks the effect of antimycin A

Compound: [Zn+2] [Zinc]
- effect on NADH evoked inhibition (inhibition period) of DAB oxidation, supercomplex activity ([1]; rat heart MMP): enhances the inhibition period evoked by NADH

Compound: NC(=O)c1ccc[n+]([C@@H]2O[C@H](COP(=O)([O-])OP(=O)(O)OC[C@H]3O[C@@H](n4cnc5c(N)ncnc54)[C@H](O)[C@@H]3O)[C@@H](O)[C@H]2O)c1 [NAD]
- effect on NADPH consumption rate / NADPH-inhibition period of DAB oxidation ([1]; rat heart MMP): reduces it

Compound: NC(=O)C1=CN([C@@H]2O[C@H](COP(=O)(O)OP(=O)(O)OC[C@H]3O[C@@H](n4cnc5c(N)ncnc54)[C@H](O)[C@@H]3O)[C@@H](O)[C@H]2O)C=CC1 [NADH]
- inhibition of DAB oxidation by the substrate itself ([1]; rat heart MMP): full blockage

Compound: O=C(O)CCC(=O)O [succinate]
- inhibition of DAB oxidation by the substrate itself ([1]; rat heart MMP): partial inhibition
- formation of reactive oxygen species (formazan production) [5]: produces the formation of reactive oxygen species (ROS) such as superoxide
- ETC activity quantified using DAB as redox dye (electron transport chain): tissue specifically modulated

Compound: N#CC(C#N)=NNc1cccc(Cl)c1 [CCCP]
- effect on NADH evoked inhibition (inhibition period) of DAB oxidation, supercomplex activity ([1]; rat heart MMP): induces changes in both

Compound: CCCCCCCCCCCCOS(=O)(=O)[O-].[Na+] [SDS]
- effect on NADH evoked inhibition (inhibition period) of DAB oxidation, supercomplex activity ([1]; rat heart MMP): effects also observed

Compound: O=[N+]([O-])c1ccc(O)c([N+](=O)[O-])c1 [DNP]
- effect on NADH evoked inhibition (inhibition period) of DAB oxidation, supercomplex activity ([1]; rat heart MMP): does not alter DAB oxidation

Compound: sodium deoxycholate
- effect on NADH evoked inhibition (inhibition period) of DAB oxidation, supercomplex activity ([1]; rat heart MMP): effects also observed

Compound: cytochrome c [cyt c]
- effect on NADH evoked inhibition (inhibition period) of DAB oxidation, supercomplex activity ([1]; rat heart MMP): cannot bypass the full inhibition caused by NADH on DAB oxidation; also recorded: decreases the time period in which a specific NADH concentration induces the DAB oxidation blockage
- effect on NADPH consumption rate / NADPH-inhibition period of DAB oxidation ([1]; rat heart MMP): increases the NADPH consumption rate
- effect on succinate evoked decrease in DAB oxidation ([1]; rat heart MMP): reduces the effect promoted by CI and CII substrates on DAB oxidation
- NADH consumption rate in the presence of ETC inhibitors ([1]; soluble cyt c, with NADH and ETC inhibitors): accelerates the NADH consumption rate

Compound: antimycin A
- effect on NADH evoked inhibition (inhibition period) of DAB oxidation, supercomplex activity ([1]; rat heart MMP): enhancement of the NADH-inhibition period
- effect on succinate evoked decrease in DAB oxidation ([1]; rat heart MMP): blocks the electron flux generated by CII to cyt c
- superoxide production using NADH (superoxide production): biphasic effect in which a maximum was observed in low micromolar range
- DCIP reduction in the presence of NADH [2]: not antimycin A efficiently blocked DCIP reduction
- DCIP reduction with succinate as substrate [3]: did it
